We go through 8 compounds from US11390812B2, “Compound, composition, cured object, optically anisotropic body, and reflective film” (FUJIFILM Corporation, priority 2018, dated 2022).

Holding throughout (assay type): physicochemical
Series [1] can be described thus: Measurement of Δn (refractive index anisotropy), wedge-shaped liquid crystal cell. Conditions: at 550 nm and 30° C.; for compounds liable to crystallize estimated from extrapolated values of mixtures with other liquid crystals. The source says:
As a method of measuring the Δn, a method using a wedge-shaped liquid crystal cell described on page 202 of the Liquid Crystal Handbook (edited by Liquid Crystal Handbook Editing Committee, published by Maruzen Co., Ltd.) is generally used. In a case of a compound which is liable to crystallize, it is also possible to carry out evaluation with a mixture thereof with other liquid crystals and to estimate Δn from extrapolated values thereof.
The Δn corresponds to a measurement value at a wavelength of 550 nm at 30° C.
<Measurement of Δn (Refractive Index Anisotropy)>
Δn of each of the compounds was measured by a method using a wedge-shaped liquid crystal cell described on page 202 of the Liquid Crystal Handbook (edited by Liquid Crystal Handbook Editing Committee, published by Maruzen Co., Ltd.). In a case of the compound which is liable to crystallize, evaluation with a mixture thereof with other liquid crystals was carried out and Δn was estimated from extrapolated values thereof. The values in the table represent Δn's at 550 nm and 30° C.
Δn in Comparative Example 1 is a measurement value in a nematic phase.

Series [2] is described as follows: Measurement of solution absorption spectrum (colorability evaluation). To be noted: chloroform solution, 1 cm cell; for λmax: wavelength of maximum light absorption coefficient in the region of 300 nm or more; for λ (1000): wavelength showing light absorption coefficient ε of 1000 in the region of 300 nm or more. The procedure:
<Measurement of Solution Absorption Spectrum (Colorability Evaluation)>
A solution absorption spectrum of each of the compounds was measured using a spectrophotometer UV-3100PC manufactured by Shimadzu Corporation. Using chloroform as a solvent, a solution in which a predetermined amount of the compound was dissolved was measured in a 1 cm cell, and λmax and λ (1000) were calculated from the obtained spectrum and molecular weight. λmax represents a wavelength showing the maximum light absorption coefficient in the region of 300 nm or more, and λ (1000) represents a wavelength showing a light absorption coefficient ε of 1000 in the region of 300 nm or more. It can be evaluated that as wavelengths of λmax and λ (1000) became smaller (as wavelengths became shorter), colorability of the compound was more inhibited.
For example, λmax is preferably 310 nm or less. In addition, λ (1000) is preferably 350 nm or less and more preferably 325 nm or less.

Series [3] can be described thus: Solubility evaluation in methyl ethyl ketone. To be noted: room temperature (23° C.), precipitation concentration. The procedure: Solubility of each of the compounds in methyl ethyl ketone was evaluated. A solution in which the compound was ultrasonically dissolved or dissolved by heating was produced. […] Solutions were produced at various concentrations for each of the compounds, and solubility of the compound was evaluated according to the following criteria, using a concentration at which the compound was precipitated as a precipitation concentration. As a precipitation concentration became higher, solubility of the compound was more excellent.
A: a precipitation concentration was 20% by mass or more
B: a precipitation concentration was 10% by mass or more and less than 20% by mass
C: a precipitation concentration was less than 10% by mass

Series [4] is described as follows: Light fastness test of optically anisotropic film. To be noted: film of compound 50 parts with B-2 50 parts; xenon, 5 million lx·h for 50 hours, 63° C., 50% RH, oxygen-blocking; transmittance change at 420 nm. The procedure: <Light Fastness Evaluation>
(Production of Optically Anisotropic Film)
A coating liquid having the following composition was prepared and applied to a rubbing-treated glass equipped with an alignment film by spin-coating. Each composition was irradiated with ultraviolet rays of 500 mJ/cm^2 through a filter that cuts light having a wavelength of 350 nm or less on a hot plate heated to a temperature until showing a nematic phase, and thereby an optically anisotropic film was produced.
The produced optically anisotropic film was irradiated with light using a Super Xenon Weather Meter SX75 manufactured by Suga Test Instruments Co., Ltd. Using KU-1000100 manufactured by King Seisakusho Co., Ltd. as a UV cut filter, a light fastness test was conducted by irradiation of 5 million l×h of light for 50 hours under an oxygen-blocking condition. A temperature of the test subject (a temperature inside the test device) was set to 63° C. A relative humidity in the test device was 50% RH.
A transmittance change of the optically anisotropic film before and after the light fastness test was measured. Light fastness in a case where a transmittance change at 420 nm was less than 5% was evaluated as A, and light fastness in a case where a transmittance change at 420 nm was 5% or more was evaluated as B. As a transmittance change became small, light fastness was more excellent.

In the case of `C=CC(=O)OCCc1ccc(C#Cc2ccc(COc3ccc(C#Cc4ccc(CCOC(=O)C=C)cc4)cc3C(F)(F)F)cc2)cc1` [Compound A-4], the Δn in series [1] is given as 0.36. In series [2], the λmax worked out at 309 nm and the “λ (1000)” value was determined as 325 nm. For the same compound, the Solubility entry in series [3] was “A (a precipitation concentration was 20% by mass or more)”. Besides, the Light fastness entry in series [4] is listed as “A (a transmittance change at 420 nm was less than 5%)”.
In the case of `C=CC(=O)OCCc1ccc(C#Cc2ccc(COc3ccc(C#Cc4ccc(CCOC(=O)C=C)cc4)cc3C(=O)OC(C)(C)C)cc2)cc1` [Compound A-7], the Δn in series [1] is listed as 0.33. Besides, in series [2], the λmax is on record as 309 nm and the “λ (1000)” value is reported as 339 nm. Further, the Solubility entry in series [3] is “A (a precipitation concentration was 20% by mass or more)”. In addition, the Light fastness result in series [4] is given as “A (a transmittance change at 420 nm was less than 5%)”.
In the case of `C=CC(=O)OCCc1ccc(C#Cc2ccc(COc3ccc(C#Cc4ccc(CCOC(=O)C=C)cc4)cc3C(=O)OC)cc2)cc1` [Compound A-6], in series [1], the Δn was 0.37. In series [2], the λmax is reported as 308 nm and the “λ (1000)” value was 343 nm. In addition, the Solubility entry in series [3] is recorded as “A (a precipitation concentration was 20% by mass or more)”. Further, the Light fastness entry in series [4] is listed as “A (a transmittance change at 420 nm was less than 5%)”.
Consider `C=CC(=O)OCCc1ccc(C#Cc2ccc(CCc3ccc(C#Cc4ccc(CCOC(=O)C=C)cc4)cc3)cc2)cc1` [Compound A-1], for which the Δn in series [1] is on record as 0.30. For the same compound, in series [2], the λmax came out at 309 nm and the “λ (1000)” value turned out to be 320 nm. For the same compound, the Solubility result in series [3] is listed as “C (a precipitation concentration was less than 10% by mass)”. For the same compound, the Light fastness result in series [4] is reported as “A (a transmittance change at 420 nm was less than 5%)”.
For `C=CC(=O)OCCc1ccc(C#Cc2ccc(COc3ccc(C#Cc4ccc(CCOC(=O)C=C)cc4)cc3C(C)(C)C)cc2)cc1` [Compound A-5], the Δn in series [1] is on record as 0.33. In series [2], the λmax was 308 nm and the “λ (1000)” value is reported as 329 nm. Moreover, the Solubility result in series [3] is given as “A (a precipitation concentration was 20% by mass or more)”. Further, in series [4], the Light fastness entry is listed as “A (a transmittance change at 420 nm was less than 5%)”.
In the case of `C=CC(=O)OCCc1ccc(C#Cc2ccc(COc3ccc(C#Cc4ccc(CCOC(=O)C=C)cc4)cc3C)cc2)cc1` [Compound A-3], the Δn in series [1] was 0.34. For the same compound, in series [2], the λmax was 308 nm and the “λ (1000)” value was 327 nm. Further, the Solubility result in series [3] is “B (a precipitation concentration was 10% by mass or more and less than 20% by mass)”. In addition, in series [4], the Light fastness entry is listed as “A (a transmittance change at 420 nm was less than 5%)”.
Consider `CC(=O)OCCCCCCCCCCOc1ccc(C#Cc2ccc(OC(=O)c3ccc(C#Cc4ccc(OCCCCCCCCCCOC(C)=O)c(F)c4)cc3)cc2)cc1F` [Compound B-1, reference compound], for which the Δn in series [1] is 0.25. Besides, in series [2], the λmax is given as 315 nm and the “λ (1000)” value worked out at 364 nm. Besides, in series [3], the Solubility result is given as “C (a precipitation concentration was less than 10% by mass)”. Besides, in series [4], the Light fastness result is listed as “B (a transmittance change at 420 nm was 5% or more)”.
For the compound `C=CC(=O)OCCc1ccc(C#Cc2ccc(COc3ccc(C#Cc4ccc(CCOC(=O)C=C)cc4)cc3)cc2)cc1` [Compound A-2], the Δn in series [1] is 0.34. Besides, in series [2], the λmax turned out to be 309 nm and the “λ (1000)” value was 327 nm. In addition, the Solubility result in series [3] is recorded as “C (a precipitation concentration was less than 10% by mass)”. In series [4], the Light fastness entry was “A (a transmittance change at 420 nm was less than 5%)”.
